Four substances from patent publication US11279774B2, “Cyclodextrin dimers, compositions thereof, and uses thereof” (UNDERDOG PHARMACEUTICALS, INC., priority 2019, dated 2022) can be followed below.

The nature of data set [1]: Turbidity assay (in vitro solubility assay), 7KC suspension. The format is physicochemical. Conditions: 7KC vs cholesterol. On the procedure: This single concentration of cyclodextrin is used in order to standardize the test results. To perform the test, the samples are incubated for 30 mins at 37 C, and then absorbance at 350 nm is measured, e.g., using a spectrophotometer plate reader. Relative turbidity is determined by dividing the measured turbidity in the presence of the cyclodextrin to the baseline turbidity without the cyclodextrin. A given cyclodextrin has greater affinity for 7KC than cholesterol if the relative turbidity of the 7KC suspension is lower than the relative turbidity of the cholesterol solution.

The test system of data set [2] is blood cells (whole blood). In words: Extraction of 7KC and cholesterol from blood cells (ex vivo whole blood, LC-MS/MS). Format: cell-based, human. The note with it: whole blood incubated 3 hours at 37C; for plasma (serum) cholesterol levels: mass spectrometry. Here is the method:
Blood was collected from healthy volunteers by licensed phlebotomists. The test substances or PBS alone (negative control) were added to whole blood at various concentrations and incubated for 3 hours at 37C. Blood was then spun down and serum collected. Serum was frozen and then processed for mass spec.
Plasma free 7-ketocholesterol was determined by LC-MS/MS following protein precipitation and extraction with acetonitrile and derivatization with the novel quaternary aminooxy (QAO) mass tag reagent, Amplifex Keto Reagent (AB Sciex, Framingham, Mass., USA), which has been used in the analysis of testosterone (Star-Weinstock [et al.], Analytical Chemistry, 84(21):9310-9317. (2012)).
A 50 μL sample of plasma was spiked with 0.5 ng of the internal standard, d7-7-ketocholesterol (Toronto Research Chemicals, North York, Ontario, CA) prepared at 0.1 ng/μL in ethanol. The sample was treated with 250 μL of acetonitrile, vortex mixed, centrifuged to remove protein at 12,000×g for 10 min. The supernatant was dried under vacuum and then treated with 75 μL of QAO reagent. The working reagent was prepared by mixing 0.7 mL of Amplifex keto reagent with 0.7 mL of Amplifex keto diluent to prepare a 10 mg/mL stock. This stock was then diluted 1:4 with 5% acetic acid in methanol to a final working concentration of 2.5 mg/mL. The mixture was allowed to react at room temperature for two days before LC-MS/MS analysis.
Standards of 7-ketocholesterol (Toronto Research Chemicals, North York, Ontario, CA) were prepared from 1 to 100 ng/ml in charcoal stripped plasma, SP1070, (Golden West Biological, Temecula, Calif., USA) and in phosphate buffered saline. There was residual 7-ketocholesterol detected in the stripped plasma, so the standards from PBS were used.
QAO-7-ketocholesterol derivatives were analyzed using a 4000 Q-TRAP hybrid/triple quadrupole linear ion trap mass spectrometer (SCIEX, Framingham, Mass., USA) with electrospray ionization (ESI) in positive mode. The mass spectrometer was interfaced to a Shimadzu (Columbia, Md.) SIL-20AC XR auto-sampler followed by 2 LC-20AD XR LC pumps.
The instrument was operated with the following settings: source voltage […], GS1 50, GS2 50, CUR 20, TEM 550 and CAD gas medium. Compounds were quantified with multiple reaction monitoring (MRM) and transitions optimized by infusion of pure derivatized compounds as presented in Table 1 below. The bold transitions were used for quantification.
Separation was achieved using a Gemini 3μ C6-phenyl 110 Å, 100×2 mm column (Phenomenex, Torrance, Calif., USA) kept at 35° C. using a Shimadzu (Columbia, Md.) CTO-20AC column oven. The gradient mobile phase was delivered at a flow rate of 0.5 ml/min, and consisted of two solvents, A: 0.1% formic acid in water, B: 0.1% formic acid in acetonitrile. The initial concentration of solvent B was 20% followed by a linear increase to 60% B in 10 min, then to 95% B in 0.1 min, held for 3 minutes, decreased back to starting 20% B over 0.1 min, and then held for 4 min. […]
Data were acquired using Analyst 1.6.2 (SCIEX, Framingham, Mass., USA) and analyzed with Multiquant 3.0.1 (SCIEX, Framingham, Mass., USA) software. Sample values were calculated from standard curves generated from the peak area ratio of the analyte to internal standard versus the analyte concentration that was fit to a linear equation with 1/× weighting. The lower limit of quantification was 1 ng/mL with an accuracy of 102% and precision (relative standard deviation) of 8.5%. […]

The test system of data set [3] is blood cells. In words: Hemolysis assay. The format is cell-based. Conditions: 7.5 mM, three hours at 37 C. On the procedure: For the test solutions, the amount of PBS varied depending on the concentration of cyclodextrin being tested. Samples were tested in triplicate. 50 μL of blood was added to each sample with PBS and cyclodextrin solution (stocks also made in PBS) to achieve the appropriate concentration in a final volume of 200 ul. 5% Triton X-100 was used as the positive control and PBS was the negative control. Once all the samples were mixed the samples were placed into a 37 C incubator for three hours with agitation. The positive control was 100% hemolyzed by Triton X-100 detergent. Once the samples were out of incubation, they were diluted by the same factor in a 96 hydrograde plate and normalized to the positive control absorbance, which is around 1.1. The absorbance is read at 540 nm. The average of the samples was then corrected by subtracting the negative control. The experiment was run three times, and the error bars are the standard error of the mean (Melanga [et al.], Journal of Pharmaceutical Sciences, 105(9):2921-31. (2016)), (Kiss [et al.], European Journal of Pharmaceutical Sciences, 40(4):376-80. (2010)).

For the substance “large-face triazole-linked beta-cyclodextrin HP(βCD-Triazole-βCD) DS˜3 [HPβCD -triazole-DS3]”, the “specificity for 7KC over cholesterol (turbidity)” value in data set [1] was “greater specificity for 7KC over cholesterol”; in data set [1] (listed as Triazole-linked HPβCD dimer (DS˜3)) it was “affinity and specificity for 7KC”; in data set [1] (listed as triazole dimers labeled DS 3) it was “greater specificity than DS 6 or DS 7 dimers”.

In the case of “large-face butyl-linked hydroxy-propyl beta-cyclodextrin HP(βCD-BUT-βCD), DS˜8 [DS8 HPβCD dimers]”, the figures for the “removal of 7KC from blood cells (plasma free 7KC)” value in data set [2] and in data set [2] (listed as HPβCD dimers (DS˜8)) were “removed substantial quantities of 7KC” and “much more efficiently than HPβCD monomers”, respectively. In addition, the “plasma (serum) cholesterol levels” value in data set [2] is given as “unperturbed”; in data set [2] (listed as HPβCD dimer), “not perturbed”; in data set [2] (listed as HPβCD dimers (DS˜8)), “does not appreciably impact plasma cholesterol levels”.

For “large-face butyl-linked hydroxy-propyl beta-cyclodextrin HP(βCD-BUT-βCD), DS˜3 [DS3 butyl dimer]”, the “specificity for 7KC over cholesterol (turbidity)” value is “affinity and specificity for 7KC” in data set [1]; “greater specificity for 7KC over cholesterol” in data set [1] (listed as HPβCD-butyl-DS3).

With “large-face triazole-linked beta-cyclodextrin (βCD-(Triazole)1-BCD, DS=0) [CD-triazole-CD DS 0]”, the “specificity for 7KC over cholesterol (turbidity)” value in data set [1] was “specificity for 7KC over cholesterol”. Also, the hemolysis in data set [3] is reported as around 5%.
